# Assay results published in patent US7390870B2, “Immune-enhancing peptides” (Posco, priority 2001, dated 2008).
# No end group written: not given here.
# How the values were obtained:
# human monocytes = assay: Superoxide generation in human monocytes (cytochrome c reduction assay); format: cell-based; set-up: activity in terms of superoxide generation among the identified peptides: dose or concentration left out as unconfirmed
# Description: For initial screening of the PS-SPCLs, the superoxide anion generation of each peptide pool was evaluated by measuring reduction of cytochrome c using a microtiter 96 well plate ELISA reader (Bio-Tekinstruments, EL312e, Winooski, Vt.) as described (20). The cytochrome c was purchased from Sigma (St. Louis, Mo.). The human monocytes (9×10^5 cells/100 □ of RPMI 1640 medium per well of a 96-well plate) were preincubated with 50 μM cytochrome c at 37° C. for 1 minute and then incubated with the indicated concentrations of peptide pools (final 0.5 nM per peptide sequence for the initial screening). The superoxide generation was measured as change in light absorption at 550 nm over 5 minutes at 1 minute intervals. From at least four independent experiments, peptides with active amino acids at each position were chosen. Superoxide generation by the identified peptides was measured by the same method. Spurious reduction of cytochrome c was ruled out by checking that the peptides-induced ones were superoxide dismutase-inhibitable in all experiments.
# Based on the results of the initial screening of the peptide libraries of Example 4, a peptide pool containing twelve (2×1×1×1×2×3=12) individual hexapeptides were generated by reiterative synthesis. […]
# The superoxide generated was measured using a cytochrome c reduction assay as described above. […]
# [1] = system: Jurkat human T cell leukemia cells; assay: [Ca2+]i increase in Jurkat cells (fura-2); format: cell-based; details: FIG. 4A; MFYLPM up to 30 μM
# Description: (§1) The level of [Ca^2+]i was determined by Grynkiewicz's method using fura-2/AM (21). Briefly, prepared cells were incubated with 3 μM fura-2/AM at 37° C. for 50 minutes in a fresh serum-free RPMI 1640 medium under continuous stirring. 2×10^6 cells were aliquoted for each assay in Ca^2+-free Locke's solution (154 mM NaCl, 5.6 mM KCl1.2 mM MgCl2, 5 mM HEPES, pH 7.3, 10 mM glucose, and 0.2 mM EGTA). The fluorescence changes at the dual excitation wavelengths of 340 nm and 380 nm and the emission wavelength of 500 nm were measured, and the calibrated fluorescence ratio was translated into [Ca^2+]i.
# (§2) From the fact that HFYLPM, MFYLPM, and HFYLPm stimulate human monocytes, effects of the peptides on other leukocytes such as neutrophils were evaluated. Prepared human primary monocytes, neutrophils, cultured HL60, Jurkat, U937, NIH3T3, 3Y1, 3T3L1, and PC12 cells were loaded with fura-2 and stimulated with effective concentrations of the three peptides (1 μM for monocyte and neutrophil; 10 μM for HL60 and Jurkat; 20 μM for U937, NIH3T3, 3Y1, 3T3L1, and PC12). The peak level of the [Ca^2+]i increase was recorded and superoxide generation was measured using cytochrome c reduction assay. The results are shown FIG. 4. The data of FIG. 4 are presented as means ±S.E. from at least three independent experiments.
# [2] = system: 3Y1 (Rat embryonic fibroblast); assay: [Ca2+]i rise in 3Y1 cells (fura-2); format: cell-based; details: FIG. 4A; 20 μM peptide
# Description: as §1, §2
# monocytes = assay: Receptor specificity: monocyte chemotaxis after preincubation with a peptide; format: cell-based, human; details: FIG. 9, preincubation 10 μM peptide 10 minutes
# Description: Chemotaxis assays of the peptide were performed using multiwell chambers (Neuroprobe Inc., Gaithersburg, Md.) (20). Briefly, the prepared isolated human monocytes were suspended in RPMI at a concentration of 1×10^6 cells/ml of serum-free RPMI, and 25 □ of the suspension were placed onto the upper well of a 96-well chemotaxis chamber that was separated by a […] filter with a 5 □ pore size (3 □ diameter pores not coated with polyvinylpyrrolidone for neutrophils) from peptides or an fMLF-containing lower well. After incubation for 2 hours (90 minutes for neutrophils) at 37° C., non-migrated cells were removed by scraping them out, and cells that migrated across the filter were dehydrated, fixed, and stained with hematoxylin (Sigma, St. Louis, Mo.). The stained cells in five randomly chosen high power fields (HPF) (400×) in that well were then counted (21). The numbers of migrated cells were determined by counting them in a high power field (400×). For a checkboard analysis, cells were re-suspended in RPMI containing various concentrations of the peptide just before transferring them to the upper wells as described before (22).
# The three peptides, HFYLPM, MFYLPM, and HFYLPm which have similar sequences, exerted similar effects on human leukocytes in that they stimulated superoxide generation and chemotactic migration involving PTX-sensitive G-protein(s). So an attempt to reveal whether the three peptides acted through the same or different receptor(s) was carried out. For this purpose, monocytes were preincubated with 10 μM of each peptide, HFYLPM, MFYLPM, or HFYLPm for 10 minutes at 37° C., or they remained untreated. After washing twice, the cells were used for chemotaxis assay. The cells were allowed to migrate towards the maximal effective concentrations of each peptide (1 μM HFYLPM, 1 μM MFYLPM, or 10 nM HFYLPm) or medium. After fixing and staining of the membrane, migrated cells were quantified microscopically. […]
# [3] = system: PC12 (rat adrenal pheochromocytoma); assay: [Ca2+]i rise in PC12 cells (fura-2); format: cell-based; details: FIG. 4A; 20 μM peptide
# Description: as §1, §2
# 3T3L1 (preadipocyte) = assay: [Ca2+]i rise in 3T3L1 cells (fura-2); format: cell-based; details: FIG. 4A; 20 μM peptide
# Description: as §1, §2
substance,measurement,setting,value
Met-Phe-Tyr-Leu-Pro-Met-CONH2 (MFYLPM-NH2),activity in terms of superoxide generation among the identified peptides,"human monocytes; FIG. 2A, monocytes stimulated",most active
same,"concentration of maximal activity, superoxide generation","human monocytes; FIG. 2B, concentration dependency",3.3 µM
same,intracellular calcium mobilization in Jurkat cells,[1],did not cause a similar intracellular calcium mobilization
same,[Ca2+]i rise in 3Y1 cells,[2],no response
same,inhibition of HFYLPm-induced cell migration by preincubation with peptide,monocytes; migration towards 10 nM HFYLPm,no inhibition
same,inhibition of HFYLPm-induced cell migration by preincubation with peptide,monocytes; migration towards 1 μM HFYLPM,partial inhibition
same,inhibition of MFYLPM-induced cell migration by preincubation with peptide,monocytes; migration towards 1 μM MFYLPM,complete inhibition
same,[Ca2+]i rise in PC12 cells,[3],no response
same,[Ca2+]i rise in 3T3L1 cells,3T3L1 (preadipocyte),no response
